Data as given in the NIST ThermoML archive (doi:10.1016/j.fluid.2008.04.003).
± gives the expanded uncertainty stated by the source.

Experiment: wn = mass fraction of the nth substance listed
Details: 101 kPa, Liquid; for viscosity: Capillary tube (Ostwald / Ubbelohde) method

NC(CO)(CO)CO [2-amino-2-(hydroxymethyl)-1,3-propanediol] + O
Details	mass density, 283.15 K [kg/m3]	mass density, 288.15 K [kg/m3]	mass density, 293.15 K [kg/m3]	mass density, 298.15 K [kg/m3]	mass density, 303.15 K [kg/m3]	mass density, 308.15 K [kg/m3]	mass density, 313.15 K [kg/m3]	viscosity, 283.15 K [mPa·s]	viscosity, 298.15 K [mPa·s]	viscosity, 313.15 K [mPa·s]
w1 = 0.0015	1000.5 ± 1.1	999.9 ± 1.1	999.1 ± 1	997.9 ± 1.1	996.6 ± 1.1	995 ± 1.2	993.1 ± 1.2	1.315 ± 0.012	0.905 ± 0.009	0.656 ± 0.007
w1 = 0.005	1001.6 ± 1.1	1001.3 ± 1.1	1000.5 ± 1	999.4 ± 1.1	997.8 ± 1.1	996 ± 1.2	993.6 ± 1.2	1.354 ± 0.012	0.913 ± 0.009	0.662 ± 0.007
w1 = 0.01	1002.4 ± 1.1	1001.8 ± 1.1	1001 ± 1	1000 ± 1.1	998.7 ± 1.1	997.2 ± 1.2	995.4 ± 1.2	1.36 ± 0.012	0.917 ± 0.009	0.669 ± 0.007
w1 = 0.025	1006.8 ± 1.1	1006 ± 1.1	1005.1 ± 1.1	1003.8 ± 1.1	1002.3 ± 1.1	1000.7 ± 1.2	998.7 ± 1.2	1.422 ± 0.013	0.959 ± 0.009	0.696 ± 0.007
w1 = 0.1	1026.2 ± 1.1	1025 ± 1.1	1023.8 ± 1.1	1022.4 ± 1.1	1020.8 ± 1.1	1019.4 ± 1.2	1017.7 ± 1.2	1.802 ± 0.016	1.173 ± 0.011	0.857 ± 0.008
